# US12729377B2, “RNAi agents and compositions for inhibiting expression of angiopoietin-like 3 (ANGPTL3), and methods of use” (Arrowhead Pharmaceuticals, Inc., priority 2017, dated 2026)
# In the oligonucleotide strings, read from the 5' end, every base follows the letter of its sugar. An asterisk marks phosphorothioate; unmarked linkages are phosphodiester. Other units and linkages are bracketed, terminal groups are in braces. A string of capitals states the bases alone. {NAG37} = tridentate N-acetyl-galactosamine targeting ligand, structure (NAG37)s; [invAb] = inverted abasic unit; m = 2'-O-methyl; f = 2'-fluoro
# Columns and labels:
# ANGPTL3 protein [1] = assay: Example 8: serum ANGPTL3 protein by ELISA in cynomolgus monkeys; assay type: in vivo, cynomolgus macaque (Macaca fascicularis); conditions: for Avg ANGPTL3 protein normalized to pre-treatment: 3.0 mg/kg single SC injection day 1, cynos, n=2
# Method: (§1) Additional ANGPTL3 RNAi agents were evaluated in cynomolgus monkeys. On day 1, cynomolgus macaque (Macaca fascicularis) primates (also referred to herein as “cynos”) were administered a single subcutaneous injection of 0.3 mL/kg (approximately 1-2 mL volume, depending on animal mass) containing 3.0 mg/kg of one of ANGPTL3 RNAi agent AD05577, AD05307, AD05488, AD05654, or AD05659, each formulated in saline.
# (§2) Two (2) cynos in each group were tested (n=2). Blood samples were drawn and serum samples were analyzed on days −8 (pre-dose), 1 (pre-dose), 8, 15, 22, 29, and 36. Cynos were fasted overnight prior to each collection. ANGPTL3 protein levels in serum were measured by ELISA assay (R&D Systems), according to the manufacturer's recommendations. Triglycerides, total cholesterol, high-density lipoprotein (HDL), and low-density lipoprotein (LDL) in serum were measured on a Cobas® Integra 400 (Roche Diagnostics), according to the manufacturer's recommendations.
# (§3) The ANGPTL3 protein levels, triglyceride levels, total cholesterol levels, HDL levels, and LDL levels for each animal were normalized. For normalization, the level of ANGPTL3 protein, triglyceride, HDL, and total cholesterol, respectively, for each animal at a time point, was divided by the average pre-treatment level of expression in that animal (in this case at days −8, and 1 (pre-dose)) to determine the ratio of expression “normalized to pre-treatment.”
# ANGPTL3 gene [2] = assay: Example 8: serum total cholesterol in cynomolgus monkeys; assay type: in vivo, cynomolgus macaque (Macaca fascicularis); conditions: 3.0 mg/kg single SC injection day 1, cynos, n=2
# Method: as §1, §2, §3
# ANGPTL3 gene [3] = assay: Example 2: serum HDL in mice; assay type: in vivo
# Method: (§4) To assess the in vivo activity of ANGPTL3 RNAi agents that are designed to target different positions on the ANGPTL3 gene, six- to eight-week-old female C57bl/6 mice were used. Pre-dose serum samples were taken at day −1 after a four hour fast. At day 1, each mouse was given a single subcutaneous administration of 200 μl containing either 3 mg/kg (mpk) of an ANGPTL3 RNAi agent in D5W (dextrose in 5% water), or control (D5W) with no RNAi agent, according to the dosing groups recited in Table 7.
# (§5) Each of the RNAi agents included a modified sequence and an N-acetyl-galactosamine-containing targeting ligand conjugated to the 5′ terminal end of the sense strand. (See Tables 3, 4, and 5 for modified sequences and targeting ligand structures). The injections were performed between the skin and muscle (i.e. subcutaneous injections) into the loose skin over the neck and shoulder area. Three (3) mice in each group were tested (n=3). Serum was collected on days 8, […], 22, 29, and day 36 (for Groups 1 and 5-11 only). Mice were fasted for four hours prior to each collection. ANGPTL3 protein levels in serum were measured by ELISA assay (R&D Systems), according to the manufacturer's recommendations. Triglycerides, high-density lipoprotein (HDL), and total cholesterol in serum were measured on a Cobas® Integra 400 (Roche Diagnostics), according to the manufacturer's recommendations.
# (§6) The ANGPTL3 protein levels, triglyceride levels, HDL levels, and total cholesterol levels for each animal were normalized. For normalization, the level of ANGPTL3 protein, triglyceride, HDL, and total cholesterol, respectively, for each animal at a time point, was divided by the pre-treatment level of expression in that animal (in this case at day −1) to determine the ratio of expression “normalized to pre-treatment.” Expression at a specific time point was then normalized to the D5W control group by dividing the “normalized to pre-treatment” ratio for an individual animal by the mean “normalized to pretreatment” ratio of all mice in the D5W control group.
# ANGPTL3 gene [4] = assay: Example 8: serum triglycerides in cynomolgus monkeys; assay type: in vivo, cynomolgus macaque (Macaca fascicularis); conditions: 3.0 mg/kg single SC injection day 1, cynos, n=2
# Method: as §1, §2, §3
# ANGPTL3 gene [5] = assay: Example 8: serum HDL in cynomolgus monkeys; assay type: in vivo, cynomolgus macaque (Macaca fascicularis); conditions: 3.0 mg/kg single SC injection day 1, cynos, n=2
# Method: as §1, §2, §3
# ANGPTL3 gene [6] = assay: Example 2: serum triglycerides in mice; assay type: in vivo
# Method: as §4, §5, §6
# ANGPTL3 protein [7] = assay: Example 2: serum ANGPTL3 protein by ELISA in mice; assay type: in vivo, C57bl/6 mice; conditions: for Avg ANGPTL3 (Average ANGPTL3 Protein Normalized to Pre-Treatment and Control): 3.0 mg/kg single subcutaneous dose on day 1, serum, female C57bl/6 mice
# Method: as §4, §5, §6
# ANGPTL3 gene [8] = assay: Example 2: serum total cholesterol in mice; assay type: in vivo
# Method: as §4, §5, §6
# ANGPTL3 gene [9] = assay: Example 8: serum LDL in cynomolgus monkeys; assay type: in vivo, cynomolgus macaque (Macaca fascicularis); conditions: 3.0 mg/kg single SC injection day 1, cynos, n=2
# Method: as §1, §2, §3
# [10] = Day 8, 3.0 mg/kg single subcutaneous dose on day 1, female C57bl/6 mice
# [11] = Day 13, 3.0 mg/kg single subcutaneous dose on day 1, female C57bl/6 mice
# [12] = Day 22, 3.0 mg/kg single subcutaneous dose on day 1, female C57bl/6 mice
# [13] = Day 29, 3.0 mg/kg single subcutaneous dose on day 1, female C57bl/6 mice
# [14] = Day 36, 3.0 mg/kg single subcutaneous dose on day 1, female C57bl/6 mice
substance,measurement,setting,value
"AD05307: RNAi agent duplex: antisense AM07001-AS, sense AM07000-SS (chain 1 mU*fU*mU*fGmAfAmUfUmAfAmUfGmUfCmCfAmUfGmGmG*mC; chain 2 {NAG37}*[invAb]*mGmCmCmCmAmUmGmGfAfCfAmUmUmAmAmUmUmCmAmAmA*[invAb])",Avg ANGPTL3 protein normalized to pre-treatment,ANGPTL3 protein [1]; Day 8,0.486
same,Avg ANGPTL3 protein normalized to pre-treatment,ANGPTL3 protein [1]; Day 15,0.402
same,Avg ANGPTL3 protein normalized to pre-treatment,ANGPTL3 protein [1]; Day 22,0.726
same,Avg ANGPTL3 protein normalized to pre-treatment,ANGPTL3 protein [1]; Day 29,0.518
same,Avg ANGPTL3 protein normalized to pre-treatment,ANGPTL3 protein [1]; Day 36,0.392
same,reduction in ANGPTL3 protein compared to pre-treatment,"ANGPTL3 protein [1]; all measured time points, single 3.0 mg/kg subcutaneous, cynomolgus monkeys",reduction
same,Avg Total Chol normalized to pre-treatment,ANGPTL3 gene [2]; Day 8,0.994
same,Avg Total Chol normalized to pre-treatment,ANGPTL3 gene [2]; Day 15,1.006
same,Avg Total Chol normalized to pre-treatment,ANGPTL3 gene [2]; Day 22,0.905
same,Avg Total Chol normalized to pre-treatment,ANGPTL3 gene [2]; Day 29,0.954
same,Avg Total Chol normalized to pre-treatment,ANGPTL3 gene [2]; Day 36,0.909
same,Avg HDL (Average HDL Normalized to Pre-Treatment and Control),ANGPTL3 gene [3]; [10],0.633
same,Avg HDL (Average HDL Normalized to Pre-Treatment and Control),ANGPTL3 gene [3]; [11],0.524
same,Avg HDL (Average HDL Normalized to Pre-Treatment and Control),ANGPTL3 gene [3]; [12],0.588
same,Avg HDL (Average HDL Normalized to Pre-Treatment and Control),ANGPTL3 gene [3]; [13],0.724
same,Avg HDL (Average HDL Normalized to Pre-Treatment and Control),ANGPTL3 gene [3]; [14],0.702
same,Avg TG normalized to pre-treatment,ANGPTL3 gene [4]; Day 8,1.157
same,Avg TG normalized to pre-treatment,ANGPTL3 gene [4]; Day 15,1.058
same,Avg TG normalized to pre-treatment,ANGPTL3 gene [4]; Day 22,0.895
same,Avg TG normalized to pre-treatment,ANGPTL3 gene [4]; Day 29,0.969
same,Avg TG normalized to pre-treatment,ANGPTL3 gene [4]; Day 36,0.806
same,Average HDL Normalized to Pre-Treatment,ANGPTL3 gene [5]; Day 8,1.007
same,Average HDL Normalized to Pre-Treatment,ANGPTL3 gene [5]; Day 15,0.946
same,Average HDL Normalized to Pre-Treatment,ANGPTL3 gene [5]; Day 22,0.879
same,Average HDL Normalized to Pre-Treatment,ANGPTL3 gene [5]; Day 29,0.998
same,Average HDL Normalized to Pre-Treatment,ANGPTL3 gene [5]; Day 36,0.863
same,Avg TG (Average Triglycerides Normalized to Pre-Treatment and Control),ANGPTL3 gene [6]; [10],0.504
same,Avg TG (Average Triglycerides Normalized to Pre-Treatment and Control),ANGPTL3 gene [6]; [11],0.655
same,Avg TG (Average Triglycerides Normalized to Pre-Treatment and Control),ANGPTL3 gene [6]; [12],0.459
same,Avg TG (Average Triglycerides Normalized to Pre-Treatment and Control),ANGPTL3 gene [6]; [13],0.629
same,Avg TG (Average Triglycerides Normalized to Pre-Treatment and Control),ANGPTL3 gene [6]; [14],0.602
same,Avg ANGPTL3 (Average ANGPTL3 Protein Normalized to Pre-Treatment and Control),ANGPTL3 protein [7]; Day 8,0.117
same,Avg ANGPTL3 (Average ANGPTL3 Protein Normalized to Pre-Treatment and Control),ANGPTL3 protein [7]; Day 13,0.120
same,Avg ANGPTL3 (Average ANGPTL3 Protein Normalized to Pre-Treatment and Control),ANGPTL3 protein [7]; Day 22,0.134
same,Avg ANGPTL3 (Average ANGPTL3 Protein Normalized to Pre-Treatment and Control),ANGPTL3 protein [7]; Day 29,0.206
same,Avg ANGPTL3 (Average ANGPTL3 Protein Normalized to Pre-Treatment and Control),ANGPTL3 protein [7]; Day 36,0.216
same,ANGPTL3 protein normalized to pre-treatment and control,"ANGPTL3 protein [7]; day 29, single 3 mg/kg subcutaneous, C57bl/6 mice",0.206
same,Avg Total Chol (Average Total Cholestrol Normalized to Pre-Treatment and Control),ANGPTL3 gene [8]; [10],0.649
same,Avg Total Chol (Average Total Cholestrol Normalized to Pre-Treatment and Control),ANGPTL3 gene [8]; [11],0.570
same,Avg Total Chol (Average Total Cholestrol Normalized to Pre-Treatment and Control),ANGPTL3 gene [8]; [12],0.628
same,Avg Total Chol (Average Total Cholestrol Normalized to Pre-Treatment and Control),ANGPTL3 gene [8]; [13],0.753
same,Avg Total Chol (Average Total Cholestrol Normalized to Pre-Treatment and Control),ANGPTL3 gene [8]; [14],0.755
same,Average LDL Normalized to Pre-Treatment,ANGPTL3 gene [9]; Day 8,1.008
same,Average LDL Normalized to Pre-Treatment,ANGPTL3 gene [9]; Day 15,1.102
same,Average LDL Normalized to Pre-Treatment,ANGPTL3 gene [9]; Day 22,0.971
same,Average LDL Normalized to Pre-Treatment,ANGPTL3 gene [9]; Day 29,1.106
same,Average LDL Normalized to Pre-Treatment,ANGPTL3 gene [9]; Day 36,0.894
